PubChem BioAssay (NCI)
“And” between values parts separate entries of the source, which are not always exact repeats. Identical values can stand only once.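 Each compound was tested at five concentrations against cells in 96-well plates for 48 hours. At the GI50, growth is halved. At the TGI there is no net growth.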

Legend:
Experiment in all cases: DTP human tumour cell line panel, 48 h
[1] = system: A498 renal
[2] = system: CAKI-1 renal
[3] = system: K-562 leukemia
[4] = system: MALME-3M melanoma
[5] = system: SNB-75 CNS
[6] = system: U251 CNS
[7] = system: UACC-257 melanoma
[8] = system: SR leukemia
[9] = system: PC-3 prostate
[10] = system: HS 578T breast

Row | Compound | TGI [1] | TGI [2] | TGI [3] | TGI [4] | TGI [5] [µM] | TGI [6] | TGI [7] | TGI [8] | GI50 [1] | GI50 [2] | GI50 [3] [µM] | GI50 [4] [µM] | GI50 [9] [µM] | TGI [9] | GI50 [8] [µM] | GI50 [6] [µM] | GI50 [5] [µM] | GI50 [7] [µM] | GI50 [10] [µM] | TGI [10] [µM]
1 | CC1(C)OC2COC3(CNO)OC(C)(C)OC3C2O1 (stereo unspecified) | > 100 µM | > 100 µM | > 100 µM | > 100 µM | > 100 | > 100 µM | > 100 µM |  |  |  |  |  |  |  |  |  |  |  |  | 
2 | CC(C)c1ccccc1NC(=O)/C(Cl)=C1/Sc2ccccc2NC1=O | 93.2 µM | > 100 µM | > 100 µM | 80.7 µM | 87.9 | > 100 µM |  |  |  |  |  |  |  |  |  |  |  |  |  | 
3 | COc1ccc(Nc2nc3ccccc3nc2-c2cccs2)cc1 | > 100 µM | > 100 µM | > 100 µM | > 100 µM | 82.2 | > 100 µM | > 100 µM | > 100 µM |  |  |  |  |  |  |  |  |  |  |  | 
4 | CC1=C(C(=O)Nc2ccccc2C)C(/C=C/c2ccccc2)C(C(=O)Nc2ccccc2C)=C(C)N1 | > 100 µM | > 100 µM | > 100 µM | > 100 µM | > 100 | > 100 µM | > 100 µM |  |  |  |  |  |  |  |  |  |  |  |  | 
5 | CCC1=C[C@@H]2CN(C1)Cc1c([nH]c3ccccc13)[C@@](C(=O)OC)(c1cc3c(cc1OC)N(C)[C@H]1[C@@](O)(C(=O)OC)[C@H](OC(C)=O)[C@]4(CC)[C@@H]5C[C@@H]5CN5CC[C@]31[C@@H]54)C2 | 0.0112 µM and 0.0857 µM | 6.17 µM and 20.5 µM |  | 1.29 µM | 11 | 0.671 µM | 7.53 µM and 15.6 µM |  | < 0.005 µM and 0.0144 µM | 0.0319 µM and 0.0818 µM | < 0.005 | < 0.005 | < 0.005 | 6.54 µM and 15 µM | < 0.005 | < 0.005 |  |  |  | 
6 | C[n+]1c2ccccc2cc2c(CNC(CCCN=C(N)N)C(=O)O)cccc21 (stereo unspecified) | 8.7 µM | 2.07 µM | 1.09 µM and 7.63 µM | 4.54 µM and 10.7 µM | 10.8 | 4.28 µM and 6.85 µM | 3.9 µM | 0.468 µM and 0.582 µM |  |  | 0.485 | 3.48 |  |  | 0.22 | 2.12 | 1.82 | 1.98 |  | 
7 | CC(=O)[CH-]C(C)=O.[CH2-]C.[CH2-]C.[Tl+3] | > 100 µM | > 100 µM | > 100 µM | > 100 µM | > 100 | > 100 µM | > 100 µM | > 100 µM | > 100 µM | > 100 µM | > 100 | > 100 |  |  | > 100 | > 100 | > 100 | > 100 |  | 
8 | CCOC1Oc2ccccc2-c2oc(=O)c(Sc3ccc(C)cc3)cc21 (stereo unspecified) | > 100 µM | > 100 µM | > 100 µM | 91.6 µM | > 100 | > 100 µM | 45.8 µM |  | 34.4 µM | 35.4 µM | 15.4 | 24.6 | 17.8 | > 100 µM |  | 25.1 | 32.6 | 11.8 | 34.5 | > 100
9 | O=C1C2=C(c3ccccc31)C(c1ccccc1Cl)N1C(=O)CCSC1=N2 (stereo unspecified) | > 100 µM | > 100 µM | > 100 µM | > 100 µM | > 100 | > 100 µM | > 100 µM |  |  |  |  |  |  |  |  |  |  |  |  | 
10 | CC(=O)OC1COC(n2c(=S)n(-c3ccccc3)c(=O)c3cc(Br)ccc32)C(OC(C)=O)C1OC(C)=O (stereo unspecified) | > 100 µM | > 100 µM | > 100 µM | > 100 µM | 30.6 | 44.5 µM | > 100 µM |  |  |  |  |  |  |  |  |  |  |  |  | 
11 | O=C(c1ccc2ccccc2c1)c1c(C(F)(F)F)n([O-])c2ccc(Cl)cc2[n+]1=O | 3.11 µM | 3.01 µM | 2.65 µM | 3.2 µM | 2.57 | 3.03 µM | 3.13 µM | 1.34 µM | 1.72 µM | 1.63 µM | 1.22 | 1.59 |  |  | 0.438 | 1.67 | 1.3 | 1.68 | 1.79 | 3.72
12 | COc1cccc(/C=C2\CCC(C)(CN(C)C)C2=O)c1 (stereo unspecified) | > 100 µM | > 100 µM | > 100 µM | > 100 µM | > 100 | > 100 µM | > 100 µM | > 100 µM |  |  |  |  |  |  |  |  |  |  |  | 
13 | O=C(NC12CC3CC(CC(C3)C1)C2)C(=O)c1c[nH]c2ccc(Cl)cc12 |  |  | > 100 µM | > 100 µM | 52.1 | > 100 µM | > 100 µM | > 100 µM |  |  |  |  |  |  |  |  |  |  |  | 
14 | OC(c1ccc(Br)cc1)(c1cccs1)C1CC1 (stereo unspecified) | 45.2 µM | 69.6 µM | > 100 µM | 41.5 µM | 66.2 | 35.4 µM | 71.3 µM |  |  |  |  |  |  | 52.8 µM |  |  |  |  |  | 49.5
15 | Cc1ccc(S(=O)(=O)N/N=C(\c2nc3ccc([N+](=O)[O-])cc3[nH]c2=O)C(O)c2ccccc2Cl)cc1 (stereo unspecified) | > 100 µM | > 100 µM | > 100 µM | > 100 µM | > 100 | > 100 µM | > 100 µM | > 100 µM |  |  |  |  |  |  |  |  |  |  |  | 
16 | CC(CC(=O)Nc1ccc(NC(=O)CC(C)N=NC(N)=S)cc1)N=NC(N)=S (stereo unspecified) | > 100 µM | > 100 µM | > 100 µM | > 100 µM | > 100 |  | > 100 µM | > 100 µM |  |  |  |  |  |  |  |  |  |  |  | 
17 | NC(=O)/C=C/C(=O)O |  |  | > 5000 µM | > 5000 µM | > 5000 | > 5000 µM | > 5000 µM | > 5000 µM |  |  |  |  |  |  |  |  |  |  |  | 
18 | CCN(CC)CC(=O)N1CCc2c([nH]c3ccccc23)C1c1cccnc1 (stereo unspecified) | > 100 µM | > 100 µM | > 100 µM |  | > 100 | > 100 µM | > 100 µM |  |  |  |  |  |  |  |  |  |  |  |  | 
19 | O=C1C=C(O)c2[nH]c(=O)ccc2C1=O | > 100 µM | > 100 µM | > 100 µM | > 100 µM | > 100 | > 100 µM | > 100 µM | > 100 µM |  |  |  |  |  |  |  |  |  |  |  | 
20 | CC(=O)N[C@H](C(=O)N[C@@H](CCCNC(=N)N)C(=O)N[C@@H](CCCCN)C(=O)N[C@@H](CCCNC(=N)N)C(=O)N[C@]1(C)CCCCCC/C=C\CCC[C@@](C)(C(=O)N[C@@H](CCCNC(=N)N)C(=O)N[C@@H](CCC(=O)O)C(=O)N[C@@H](CC(C)C)C(=O)N[C@H](C(=O)N[C@@H](CCC(=O)O)C(N)=O)C(C)C)NC(=O)[C@H](CCC(N)=O)NC(=O)[C@H](CC(C)C)NC(=O)[C@H](CC(C)C)NC(=O)[C@H](CCCNC(=N)N)NC(=O)[C@H](CCCNC(=N)N)NC(=O)[C@H](CC(C)C)NC1=O)C(C)C | 22.4 µM | 11.7 µM | 21.6 µM | 2.72 µM | 13.1 | 36.6 µM |  |  | 9.32 µM | 2.06 µM | 5.42 | 1.19 | 8.24 | 23.7 µM |  | 3.79 | 1.99 |  | 1.46 | 4.14
